Assay results as given in patent US11779531B2, “Anti-inflammatory peptides, and uses thereof” (NURITAS LIMITED, priority 2015, dated 2023).

What follows are substances tested on TNF-α secretion in THP1 cells (assay: TNF-α secretion by LPS-stimulated THP-1 differentiated cells after synthetic peptide treatment (Biolegend ELISA)). Settings: THP-1 cells, synthetic peptide 100, 10 or 1 ng/ml for 24 h, then 10 ng/ml LPS 5 h; vs untreated control; concentration behind the value not stated.
Format: cell-based, human
Description: FIGS. 1 to 18: The effect of eighteen synthetic peptides of the invention on TNF-secretion in THP1 cells. All experiments were prepared in duplicate on three plates (6 wells/conditions). Significance was calculated using Students t-test (*p<0.05 compared to control, **p<0.01 compared to control, *** p<0.001 compared to control). The figures correspond with the following SEQ ID Nos: FIG. 1 is SEQ ID NO: 339, FIG. 2 is SEQ ID NO: 352, FIG. 3 is SEQ ID NO: 341, FIG. 4 is SEQ ID NO: 351, FIG. 5 is SEQ ID NO: 144, FIG. 6 is SEQ ID NO: 93, FIG. 7 is SEQ ID NO: 320, FIG. 8 is SEQ ID NO: 92, FIG. 9 is SEQ ID NO: 75, FIG. 10 is SEQ ID NO: 76, FIG. 11 is SEQ ID NO: 349, FIG. 12 is SEQ ID NO: 350, FIG. 13 is SEQ ID NO: 105, FIG. 14 is SEQ ID NO: 177, FIG. 15 is SEQ ID NO: 345, FIG. 16 is SEQ ID NO: 353, FIG. 17 is SEQ ID NO: 344, FIG. 18 is SEQ ID NO: 346.
FIGS. 26 to 28. The effect of three synthetic peptides of the invention on TNF-secretion in THP1 cells. All experiments were prepared in duplicate on three plates (6 wells/conditions). Significance was calculated using Students t-test (*p<0.05 compared to control, **p<0.01 compared to control, ***p<0.001 compared to control). The figures correspond with the following SEQ ID Nos: FIG. 26 is SEQ ID NO: 85, FIG. 27 is SEQ ID NO: 91, FIG. 28 is SEQ ID NO: 420.
TNF-α is secreted by macrophages in response to stimulation by endotoxins such as lipopolysaccharides (LPS). TNF-α is thought to be involved in systemic inflammation and dysregulation of TNF-α production is thought to be involved in many diseases. The Biolegend assay is a sandwich ELISA kit that is designed for the accurate quantitation of human TNF-α from cell culture supernatant, serum or plasma.
THP-1 monocytes were seeded in a 96 well plate at 10,000 cells per well in RPMI containing 10% fetal calf serum (FCS), 1% Pen/strep, 1% L-glutamine, 100 nM PMA and allowed to differentiated for 72 h prior to experimentation.
Following differentiation the cells were incubated with 100 ng/ml, 10 ng/ml or 1 ng/ml synthetic peptide for 24 h respectively.
Following treatment the cells were stimulated with 10 ng/ml LPS for 5 h and the quantity of TNF-α in the supernatant determined using the Biolegend assay ELISA kit.
Results were calculated as a percentage of the untreated control. An increase in optical density reading indicates greater quantity of TNF-a release into cell culture supernatant.
All experiments were prepared in duplicate on three plates (6 wells/conditions). Significance was calculated using Students t-test (*p<0.05 compared to control, **p<0.01 compared to control, ***p<0.001 compared to control).

| Substance | TNF-α DECREASE |
| --- | --- |
| 341 (RGPQQYA) [compound 341] | 21% |
| 85 (SKPHTIFLPQHTDADYILVVLSGK) [compound 85] | 80% |
| 76 (EDDEEEEQGEEEINK) [compound 76] | 9% |
| 351 (HGPVEMPYTLLYPSSK) [compound 351] | 18% |
| 352 (LDALEPDNR) [compound 352] | 23% |
| 92 (FFELTPEKNQQLQDLDLFVNSVDLK) [compound 92] | 13% |
| 346 (NGVLRPGQL) [compound 346] | 18% |
| 93 (QLEELSK) [compound 93] | 14% |
| 345 (IDGYDTPVEGR) [compound 345] | 23% |
| 105 (PSYEKQEDEEEKQK) [compound 105] | 9% |
| 344 (GYYGEQQQQPGMTR) [compound 344] | 20% |
| 75 (LSSGDVFVIPAGHPVAVK) [compound 75] | 11% |
| 420 (RLQSQNDQRGEIIHVK) [compound 420] | 80% |
| 320 (RGPQQYAEWQINE) [compound 320] | 13% |
| 91 (PGQLQSFLLSGNQNQQNYLSGFSK) [compound 91] | 80% |
| 144 (SIFRALPND) [compound 144] | 16% |
| 339 (QSFLLSGNQNQQ) [compound 339] | 26% |
| 349 (TVFDGVLRPGQL) [compound 349] | 6% |
